Literature values as cited in US20070027110A1, “Double salts of (-)-hydroxycitric acid with an amine and a group II a metal and a process for preparing the same” (priority 2004, published 2007).

Conditions: free acid form, forming lactone; liquid form unstable during storage

Question: With `O=C(O)CC(O)(C(=O)O)C(O)C(=O)O` (single isomer, unassigned; (-)) [(−)-hydroxycitric acid] as the compound, how does the stability read?
Answer: The stability was “unstable”.
